Measured values taken from patent US20130197002A1, “B[…] TREATING VISUAL DISORDERS MEDIATED BY CENTRAL VISUAL P[…] THE EYE” (ALLERGAN, INC., priority 2012, published 2013).

Tested on: rat visual cortex slices
Assay: Long-term potentiation (LTP) in visual cortex slice
Format: cell-based
Procedure: Long-Term Potentiation in Visual Cortex Slice
Following decapitation of the anesthetized rat, the brain was rapidly removed and immersed in ice-cold artificial cerebrospinal fluid (ACSF) containing (in mM) NaCl 124, KCl 3, KH2PO4 1.25, CaCl2 3.4, MgSO4 2.5, NaHCO3 26, and D-glucose 10. A block of visual cortex was created by removing the frontal ⅔ portion of the brain and the cerebellum. Coronal visual cortex slices of 350 μm thick were prepared from young adult (200-300 g) male Sprague-Dawley rats using a vibratome (VT 1000 S; Leica). The slices were maintained in an interface recording chamber perfused with preheated ACSF. Slices were continuously perfused with this solution at a rate of 1.00-1.50 ml/min while the surface of the slices was exposed to warm, humidified 95% O2/5% CO2 and maintained at 31±1° C. Visual cortex slices were allowed to recover for 1 hr before recording began. A single stimulating and recording electrode was placed in layer IV and III, respectively, to generate and record field excitatory postsynaptic potentials (fEPSPs). Pulses were administered at 0.05 Hz using a current that produced a fEPSP that is 50% of the maximum spike free response. An input-output (IO) curve is done to determine the stimulation needed to achieve a stable baseline. Following a 15 min stable baseline recording period, a train of 5 theta bursts (each burst containing four pulses at 100 Hz with an inter-burst interval of 200 ms) is delivered to the slice. This is repeated 2 additional times with a 1 minute inter-train interval, and the level of LTP was recorded for at least 30 min. Changes in amplitude of the synaptic response were used to measure the extent of LTP, since the amplitude was determined to be the more consistent parameter than the slope of the response. Control LTP values were obtained from slices not treated with drug. Different slices were used to study drug effects on LTP. Brimonidine was infused after 15 min baseline recording for duration of 20 minutes followed by LTP induction. […] LTP was recorded for at least 30 min after induction.

## CCC1(c2cnc[nH]2)Cc2ccccc2C1 [atipamezole]
Atipamezole plus brimonidine, FIG. 1 right panel
  brimonidine-induced enhancement of LTP in presence of alpha 2 pan antagonist: fully suppressed

## Brc1c(N=C2NCCN2)ccc2nccnc12 [brimonidine, (5-bromo-quinoxalin-6-yl)-imidazolidin-2-ylidene-amine]
Brimonidine administered to visual cortex slices, FIG. 1 left panel
  effect on LTP: marked and dose-dependent enhancement of LTP
Visual cortex slices, FIG. 1 left panel
  threshold dose for enhancement of LTP: 3 nM
